Tested on: PDC KRAS tumor spheroids with HUVEC/MSC, viability
Test: Anticancer human tumor 349418-098-R-PDC patient-derived lung adenocarcinoma cell line growth inhibition [KRAS2]
Settings: for IC50: curve of first compound; for viability, T/C: stronger effect = lower value
Outline: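 KRAS-mutant tumor cells were grown as spheroids with HUVEC endothelial cells and human MSCs as stroma. Targeted agents were tested alone and with KRAS pathway inhibitors. Doses started at or near clinical Cmax, or 10 microM, descending half-log.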

[1] = second compound 0.1 µM, first compound 0.01 µM
[2] = second compound 0.1 µM, first compound 0.0316 µM
[3] = second compound 0.1 µM, first compound 0.1 µM
[4] = second compound 0.1 µM, first compound 0.316 µM
[5] = second compound 0.1 µM, first compound 1 µM
[6] = second compound 0.1 µM, first compound 3.16 µM
[7] = second compound 0.316 µM, first compound 0.01 µM
[8] = second compound 0.316 µM, first compound 0.0316 µM
[9] = second compound 0.316 µM, first compound 0.1 µM
[10] = second compound 0.316 µM, first compound 0.316 µM
[11] = second compound 0.316 µM, first compound 1 µM
[12] = second compound 0.316 µM, first compound 3.16 µM
[13] = second compound 1 µM, first compound 0.01 µM
[14] = second compound 1 µM, first compound 0.0316 µM
[15] = second compound 1 µM, first compound 0.1 µM
[16] = second compound 1 µM, first compound 0.316 µM
[17] = second compound 1 µM, first compound 1 µM
[18] = second compound 1 µM, first compound 3.16 µM
[19] = second compound 3.16 µM, first compound 0.01 µM
[20] = second compound 3.16 µM, first compound 0.0316 µM
[21] = second compound 3.16 µM, first compound 0.1 µM
[22] = second compound 3.16 µM, first compound 0.316 µM
[23] = second compound 3.16 µM, first compound 1 µM
[24] = second compound 3.16 µM, first compound 3.16 µM
[25] = second compound 10 µM, first compound 0.01 µM
[26] = second compound 10 µM, first compound 0.0316 µM
[27] = second compound 10 µM, first compound 0.1 µM
[28] = second compound 10 µM, first compound 0.316 µM
[29] = second compound 10 µM, first compound 1 µM
[30] = second compound 10 µM, first compound 3.16 µM
[31] = second compound 0.1 µM, first compound 10 µM
[32] = second compound 0.316 µM, first compound 10 µM
[33] = second compound 1 µM, first compound 10 µM
[34] = second compound 3.16 µM, first compound 10 µM
[35] = second compound 10 µM, first compound 10 µM
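Note: spheroids exposed to compounds for seven days before readout.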

Compound	IC50 (second compound 0.1 µM)	IC50 (second compound 0.316 µM)	IC50 (second compound 1 µM)	IC50 (second compound 3.16 µM)	IC50 (second compound 10 µM)	viability, T/C [2]	viability, T/C [3]	viability, T/C [4]	viability, T/C [5]	viability, T/C [6]	viability, T/C [8]	viability, T/C [9]	viability, T/C [10]	viability, T/C [11]	viability, T/C [14]	viability, T/C [15]	viability, T/C [20]	viability, T/C [21]	viability, T/C [26]	viability, T/C [27]	also measured
CC1COCCN1c1cc(-c2ccnn2C)c2ccnc(-c3ccn[nH]3)c2n1 (stereo not given) + CNCc1ccccc1-c1csc(C(C)Nc2nc(C)nc3cc(OC)c(OC)cc23)c1	25 nM	29.9 nM	18.5 nM	< 10 nM	< 10 nM	33.4%	10.6%	7.11%	5.04%	3.83%	47.1%	11.1%	5.41%	4.13%	13.4%	3.84%	0.21%	0.12%	0.07%	0.07%	viability, T/C [1]: 114%; viability, T/C [7]: 107%; viability, T/C [12]: 3.71%; viability, T/C [13]: 92.1%; viability, T/C [16]: 4.41%; viability, T/C [17]: 3.23%; viability, T/C [18]: 2.84%; viability, T/C [19]: 0.09%; viability, T/C [22]: 0.03%; viability, T/C [23]: 0.04%; viability, T/C [24]: 0.13%; viability, T/C [25]: 0.08%; viability, T/C [28]: 0.07%; viability, T/C [29]: 0.08%; viability, T/C [30]: 0.13%
CC1OCC2(CCN(c3cnc(Sc4ccnc(N)c4Cl)c(N)n3)CC2)C1N (stereo not given) + CNCc1ccccc1-c1csc(C(C)Nc2nc(C)nc3cc(OC)c(OC)cc23)c1	> 10000 nM	> 10000 nM	< 31.6 nM	< 31.6 nM	< 31.6 nM	84.7%	98.9%	65%	103%	111%	103%	91.1%	109%	88.2%	42.8%	35.4%	0.05%	0.07%	0.06%	0.07%	viability, T/C [31]: 88.3%; viability, T/C [12]: 88.4%; viability, T/C [32]: 72.9%; viability, T/C [16]: 34%; viability, T/C [17]: 46.8%; viability, T/C [18]: 50.6%; viability, T/C [33]: 16.5%; viability, T/C [22]: 0.06%; viability, T/C [23]: 0.41%; viability, T/C [24]: 0.12%; viability, T/C [34]: 0.17%; viability, T/C [28]: 0.06%; viability, T/C [29]: 0.35%; viability, T/C [30]: 0.07%; viability, T/C [35]: 0.12%
CCNC(=O)CC1N=C(c2ccc(Cl)cc2)c2cc(OC)ccc2-n2c(C)nnc21 (stereo not given) + CNCc1ccccc1-c1csc(C(C)Nc2nc(C)nc3cc(OC)c(OC)cc23)c1	133 nM	124 nM	77.3 nM	< 31.6 nM	< 31.6 nM	103%	58.5%	24.3%	12.4%	2.7%	107%	55.7%	24.7%	13.5%	86.6%	39.5%	0.11%	0.08%	0.11%	0.11%	viability, T/C [31]: 1.11%; viability, T/C [12]: 2.81%; viability, T/C [32]: 1.21%; viability, T/C [16]: 13.9%; viability, T/C [17]: 4.94%; viability, T/C [18]: 0.98%; viability, T/C [33]: 0.31%; viability, T/C [22]: 0.04%; viability, T/C [23]: 0.02%; viability, T/C [24]: 0.01%; viability, T/C [34]: 0.08%; viability, T/C [28]: 0.09%; viability, T/C [29]: 0.09%; viability, T/C [30]: 0.08%; viability, T/C [35]: 0.28%
Cn1nccc1Nc1nccc(-c2cc3c(s2)C(C)(C)N(CCN2CCOCC2)C3=O)n1 + CNCc1ccccc1-c1csc(C(C)Nc2nc(C)nc3cc(OC)c(OC)cc23)c1	37.8 nM	< 31.6 nM	< 31.6 nM	< 31.6 nM	< 31.6 nM	54.8%	25.9%	12.2%	8.63%	5.95%	48.3%	21.5%	10.3%	6.91%	28.4%	8.49%	0.04%	0.3%	0.19%	0.25%	viability, T/C [31]: 4.72%; viability, T/C [12]: 6.22%; viability, T/C [32]: 3.95%; viability, T/C [16]: 3.82%; viability, T/C [17]: 2.34%; viability, T/C [18]: 1.92%; viability, T/C [33]: 1.22%; viability, T/C [22]: 0.06%; viability, T/C [23]: 0.07%; viability, T/C [24]: 0.05%; viability, T/C [34]: 0.1%; viability, T/C [28]: 0.07%; viability, T/C [29]: 0.08%; viability, T/C [30]: 0.23%; viability, T/C [35]: 0.13%
CC(=O)OC12COC1CC(O)C1(C)C(=O)C(O)C3=C(C)C(OC(=O)C(O)C(NC(=O)OC(C)(C)C)c4ccccc4)CC(O)(C(OC(=O)c4ccccc4)C21)C3(C)C (stereo not given) + COc1cc2nc(C)nc(NC(C)c3cc(N)cc(C(F)(F)F)c3)c2cc1OC1CCOC1	< 10 nM	< 10 nM	< 10 nM	< 10 nM	< 10 nM	25.7%	24%	33.4%	27.4%	38.3%	27.1%	25.8%	23.7%	28.6%	31.1%	27.4%	21.3%	21.7%	23.3%	25.4%	viability, T/C [1]: 22%; viability, T/C [7]: 20.7%; viability, T/C [12]: 34.5%; viability, T/C [13]: 22.8%; viability, T/C [16]: 33.7%; viability, T/C [17]: 27.8%; viability, T/C [18]: 29.6%; viability, T/C [19]: 18.3%; viability, T/C [22]: 26.3%; viability, T/C [23]: 28.3%; viability, T/C [24]: 22.1%; viability, T/C [25]: 20.1%; viability, T/C [28]: 20.4%; viability, T/C [29]: 23.2%; viability, T/C [30]: 26.2%
CN(C)C/C=C/C(=O)Nc1cc2c(Nc3ccc(F)c(Cl)c3)ncnc2cc1O[C@H]1CCOC1 + COc1cc2nc(C)nc(NC(C)c3cc(N)cc(C(F)(F)F)c3)c2cc1OC1CCOC1	> 100 nM	> 100 nM	> 100 nM	> 100 nM	> 100 nM	93.8%	92.8%				87.5%	88.2%			90.8%	91.9%	67.6%	75.1%	73.4%	62.8%	viability, T/C (second compound 0.1 µM, first compound 0.000316 µM): 97.6%; viability, T/C (second compound 0.1 µM, first compound 0.001 µM): 104%; viability, T/C (second compound 0.1 µM, first compound 0.00316 µM): 88.8%; viability, T/C [1]: 95.3%; viability, T/C (second compound 0.316 µM, first compound 0.000316 µM): 87.2%; viability, T/C (second compound 0.316 µM, first compound 0.001 µM): 102%; viability, T/C (second compound 0.316 µM, first compound 0.00316 µM): 92.2%; viability, T/C [7]: 102%; viability, T/C (second compound 1 µM, first compound 0.000316 µM): 91.5%; viability, T/C (second compound 1 µM, first compound 0.001 µM): 97.4%; viability, T/C (second compound 1 µM, first compound 0.00316 µM): 101%; viability, T/C [13]: 92.8%; viability, T/C (second compound 3.16 µM, first compound 0.000316 µM): 74.7%; viability, T/C (second compound 3.16 µM, first compound 0.001 µM): 78.2%; viability, T/C (second compound 3.16 µM, first compound 0.00316 µM): 70.3%; viability, T/C [19]: 77.7%; viability, T/C (second compound 10 µM, first compound 0.000316 µM): 74%; viability, T/C (second compound 10 µM, first compound 0.001 µM): 69.7%; viability, T/C (second compound 10 µM, first compound 0.00316 µM): 73.2%; viability, T/C [25]: 78.8%

Source: PubChem BioAssay AID1963866 (Molecular Pharmacology Branch, DTP, NCI, 2024)
